Test results taken from patent US4446136A, “Agents for improvement of peripheral blood flow” (Yamanouchi Pharmaceutical Co., Ltd., priority 1980, dated 1984).

Columns and labels:
Sheep = assay: Acute toxicity (LD50 of gelatin) in sheep; type: in vivo; parameters: unit not given here; conditions: intravenous, intraperitoneal, subcutaneous
[1] = Acute toxicity, overall (Experiment 5); type: in vivo; conditions: summary of Tables 1, 2 and 3
HeLa S3 = assay: Toxicity of gelatin to cells in culture; type: cell-based
[2] = tested on: EB virus transformed lymphoblastoid cells P3HR-1; assay: Toxicity of gelatin to cells in culture; type: cell-based
erythrocytes = assay: Dose-response of gelatin on filtration and hemolysis of erythrocytes (Experiment 4(i)); type: cell-based
Description: (i) Following procedures similar to the Experiment 2 using a concentration of gelatin between 0-2.0 mg/ml, effects of the substance on the filtration ratios of erythrocytes through the membrane filter and the ratio of hemolysis were examined at various concentrations of gelatin.

Rat = assay: Acute toxicity (LD50) in rat; type: in vivo; parameters: unit not given here; conditions: intravenous, intraperitoneal, subcutaneous
[3] = Antigenic activity of gelatin; conditions: by itself
[4] = tested on: Lung fibroblasts of human embryo; assay: Toxicity of gelatin to cells in culture; type: cell-based
[5] = tested on: blood flow in microvessels; assay: Effects on microcirculation in vivo in mesenterium of rabbit with lowered blood pressure (Experiment 3); conditions: other substances, anesthetized rabbit, low arterial blood pressure

Description for human erythrocytes: A mixture of 1 part of human blood and 1 part (v/v) of preservative solution (sodium citrate buffer containing glucose) was washed 4 to 5 times with physiological saline solution and then 2% (by volume) erythrocyte solution was prepared in physiological saline. In the next step, physiological saline solutions containing 0.05% gelatin, 0.1% α1 -acid glycoprotein, 0.1% polyethylene glycol, 0.1% γ-globulin, 0.1% ovomucoid, 0.1% dextran, 0.1% dextran sulfate, 0.1% chondroitin sulfate, or physiological saline alone were mixed with an equal volume of the erythrocyte suspension, and then each mixture was shaken mildly for 30 min at 37° C. Thereafter 1 ml of each mixture was subjected to filtration through a nitrocellulose membrane filter (13 mm in diameter and 5 μm in average size of micropores, made by Sartorius Co.) at 37° C. under a pressure of 80 mmHg/cm^2. The filtrate was immediately subjected to centrifugation for 2 min at 1,500 r.p.m. and from the supernatant, the ratio of hemolysis during filtration was calculated based on absorbance at 420 nm. As to the erythrocytes remaining on the filter, 5 ml of deionized water was added to the erythrocytes on the membrane filter by placing into a test tube, and the resulting hemolysis due to hypotonicis permitted a measurement of absorbance at 420 nm to calculate the ratio of filtered erythrocytes through the membrane.

gelatin
ratio of passage (filtration) of erythrocytes through the filter (human erythrocytes; 0.05% gelatin, 0.1% other substances, 5 μm micropores, 37° C., 80 mmHg/cm^2): increased remarkably | ratio of hemolysis during filtration (in words) (human erythrocytes; 0.05% gelatin, 5 μm micropores, 37° C., vs physiological saline control): reduced | LD50 of gelatin (Sheep): > 1,000 | acute toxicity (in words) [1]: very mild | Toxicity (50% growth inhibition) (HeLa S3): > 100 µg/mL | Toxicity (50% growth inhibition) [2]: > 100 µg/mL | filtration ratio on further increase in concentration (erythrocytes; above 0.5 mg/ml gelatin): did not improve the filtration ratio | concentration at which filtration ratio of erythrocytes reached plateau (erythrocytes; gelatin 0-2.0 mg/ml): 0.5 mg/mL | LD50 of gelatin (Rat): > 1,000 | antigenic activity [3]: no antigenic activity | Toxicity (50% growth inhibition) [4]: > 100 µg/mL

dextran sulfate [reference compound]
erythrocytes hemolysed during filtration (human erythrocytes; human, erythrocytes): 25-30% | actions on microcirculation as observed for gelatin [5]: did not exert any actions on microcirculation
